The record followed here is patent US8304252B2, “Stereoselective bioconversion of aliphatic dinitriles into cyano carboxylic acids” (Pfizer Inc., priority 2004, dated 2012).

SMILES strings stand for the structures. In brackets after ≈: the same amount, converted by molar mass.

The data set is described as follows: physchem. Particulars: 30 °C, pH 7.5, aqueous buffer. Type of data set: physicochemical. The protocol: This process can be carried out in reaction mixtures comprised of two phases: an aqueous phase, which initially contains enzyme and dissolved 2-isobutyl-succinonitrile, and an organic phase, which consist mainly of racemic 2-isobutyl-succinonitrile. Two-phase reaction mixtures are prepared by adding 2-isobutyl-succinonitrile to an aqueous solution of enzyme and buffer agents such that the amount of 2-isobutyl-succinonitrile added exceeds it aqueous solubility limit. The aqueous solubility limit of 2-isobutyl-succinonitrile in 50 mM potassium phosphate (30° C., pH 7.5) is approximately 0.06M. Over the course of the reaction, (S)-3-cyano-5-methylhexanoic acid ammonium salt is formed and increases in concentration in the aqueous phase, while the organic phase decreases in volume and becomes enriched in (R)-2-isobutyl-succinonitrile. Alternately, this process can also be carried out in reaction mixtures comprised of three phases: an aqueous phase, which initially contains dissolved 2-isobutyl-succinonitrile, an organic phase, which consists mainly of racemic 2-isobutyl-succinonitrile, and a solid phase, which consists of enzyme immobilized on an insoluble support. Three-phase reaction mixtures are prepared by the procedure described for two-phase reaction mixture except that an enzyme immobilized on an insoluble support is used in place of an un-immobilized enzyme.

Turning to `CC(C)CC(C#N)CC#N` (racemic) [2-isobutyl-succinonitrile], the solubility was approximately 60 mM (≈ 8170 µg/mL).
